From patent US20080132417A1, “Molecular Basis For The Identification Of Chemotherapy Resistance In Human Tumors And The Treatment Thereof” (THE UAB RESEARCH FOUNDATION, priority 2004, published 2008)
≈ marks a conversion by molar mass, not a printed value.

Key:
Type in all cases: cell-based, human
SW948CPTH cells = test: Cell proliferation assay, cross-resistance of SW948CPTH; settings: for IC50: Homo sapiens, read-out: mean IC50 dose, SW948CPTH; for cross-resistance of SW948CPTH cells (in words): compared to SW948; for mean IC50 dose, SW948CPTH: SW948CPTH cells, without CPT-11 for >22 days, 24 h drug exposure, counted day 4, mean ± SD; for fold change, SW948CPTH: fold change of IC50 vs SW948 (in brackets)
Procedure: (§1) Determination of cross-resistance was determined by cell proliferation assay. SW948, SW948CPTH or SW948CPTL cells were plated in 24-well tissue culture plates and allowed to grow for 24 h at which time the drugs were added at various doses ranging from 0-80 μg/ml. Then 24 h later, the culture medium was removed, and the cells were washed once with PBS followed by the addition of drug-free culture medium. Cells were counted on day 4 using a cell counter (Beckman Coulter, Fullerton, Calif.). The data were analyzed with Microsoft Excel (Microsoft Corp., Redmond, Wash.) using an exponential regression model to determine the IC50 dose.

SW948 cells = test: Cell proliferation assay, sensitivity of SW948 to various drugs; settings: SW948 parental cells, 24 h drug exposure, cells counted day 4, mean ± SD of 1-4 assays; for IC50: Homo sapiens, read-out: mean IC50 dose, SW948
Procedure: as §1

SW948CPTL cells = test: Cell proliferation assay, cross-resistance of SW948CPTL; settings: for IC50: Homo sapiens, read-out: mean IC50 dose, SW948CPTL; for resistance of SW948CPTL cells (in words): compared to SW948; for fold change, SW948CPTL: fold change of IC50 vs SW948 (in brackets); for mean IC50 dose, SW948CPTL: SW948CPTL cells, without CPT-11 for >28 days, 24 h drug exposure, counted day 4, mean ± SD
Procedure: as §1

Structure (SMILES) | IC50 (SW948CPTH cells) [µg/mL] | cross-resistance of SW948CPTH cells (in words) (SW948CPTH cells) | IC50 (SW948 cells) [µg/mL] | IC50 (SW948CPTL cells) [µg/mL] | resistance of SW948CPTL cells (in words) (SW948CPTL cells) | mean IC50 dose, SW948CPTH (SW948CPTH cells) [µg/mL] | fold change, SW948CPTH (SW948CPTH cells) | mean IC50 dose, SW948 (SW948 cells) [µg/mL] | fold change, SW948CPTL (SW948CPTL cells) | mean IC50 dose, SW948CPTL (SW948CPTL cells) [µg/mL]
O=c1[nH]cc(F)c(=O)[nH]1 [5-FU, 5-fluorouracil] | 0.54 ± 0.2 (≈ 4.15 µM) | No resistant | 0.61 ± 0.1 (≈ 4.69 µM) | 0.75 ± 0.02 (≈ 5.77 µM) | no resistance | – | – | – | – | –
CC[C@@]1(O)C(=O)OCc2c1cc1n(c2=O)Cc2cc3cc(O)ccc3nc2-1 [10-OH-CPT] | – | cross-resistant | – | – | – | 1.7 ± 0.3 | 7 | 0.25 ± 0.16 | – | –
CC[C@@]1(O)C(=O)OCc2c1cc1n(c2=O)Cc2cc3ccccc3nc2-1 [CPT, camptothecin] | 0.32 ± 0.02 (≈ 0.919 µM) | cross-resistant | 0.057 ± 0.02 (≈ 0.164 µM) | 0.14 (≈ 0.402 µM) | showed resistance | – | 6 | – | 2.4 | –
CCc1c2c(nc3ccc(OC(=O)N4CCC(N5CCCCC5)CC4)cc13)-c1cc3c(c(=O)n1C2)COC(=O)[C@]3(O)CC [CPT-11] | – | cross-resistant | – | – | showed resistance | 38 ± 6.9 | – | 3.0 ± 0.3 | – | –
N.N.[Cl][Pt][Cl] [Cisplatin, cisplatin] | – | No resistant | – | – | showed resistance | 1.5 ± 0.15 | – | 1.3 ± 0.34 | 1.7 | 2.2 ± 1.3
COc1cccc2c1C(=O)c1c(O)c3c(c(O)c1C2=O)C[C@@](O)(C(=O)CO)C[C@@H]3O[C@H]1C[C@H](N)[C@H](O)[C@H](C)O1 [Doxorubicin, doxorubicin] | 0.048 ± 0.008 (≈ 0.0883 µM) | No resistant | 0.037 ± 0.008 (≈ 0.0681 µM) | – | – | – | – | – | – | –
COc1cc([C@@H]2c3cc4c(cc3[C@@H](O[C@@H]3O[C@@H]5CO[C@@H](C)O[C@H]5[C@H](O)[C@H]3O)[C@H]3COC(=O)[C@H]23)OCO4)cc(OC)c1O [Etoposide, etoposide] | 0.7 ± 0.2 (≈ 1.19 µM) | not cross-resistant | 0.8 ± 0.1 (≈ 1.36 µM) | 1.6 ± 0.2 (≈ 2.72 µM) | showed resistance | – | – | – | 2 | –
Nc1ccn([C@@H]2O[C@H](CO)[C@@H](O)C2(F)F)c(=O)n1 [Gemcitabine, gemcitabine] | 0.008 ± 0.004 (≈ 0.0304 µM) | No resistant | 0.009 ± 0.004 (≈ 0.0342 µM) | 0.016 (≈ 0.0608 µM) | showed resistance | – | – | – | 1.8 | –
CC1(C)CCC2=C(O1)c1ccccc1C(=O)C2=O [Lapachone] | 0.84 ± 0.21 (≈ 3.47 µM) | not cross-resistant | 1.06 ± 0.16 (≈ 4.38 µM) | – | – | – | – | – | – | –
CCc1c2c(nc3ccc(O)cc13)-c1cc3c(c(=O)n1C2)COC(=O)[C@]3(O)CC [SN38] | – | cross-resistant | – | – | showed resistance | 1.5 ± 0.13 | 8 | 0.19 ± 0.01 | 9 | 1.7 ± 0.15
